Laboratory results from PubChem BioAssay AID1963856 (Molecular Pharmacology Branch, DTP, NCI, 2024).
pIC50: −log10 of the molar value.

Tested on: LG0567-F671-PDC KRAS tumor spheroid viability
Assay: Anticancer human tumor LG0567-F671-PDC patient-derived lung adenocarcinoma cell line growth inhibition [KRAS2]
Conditions: spheroids with HUVEC and MSC; for pIC50: curve of first compound; for viability, T/C: stronger effect = lower value; active means viability on the fitted dose curve at most 10% of control; inactive means the rest
Procedure, shortened: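 KRAS-mutant tumor cells were grown as spheroids with HUVEC endothelial cells and human MSCs as stroma. Targeted agents were tested alone and with KRAS pathway inhibitors. Doses started at or near clinical Cmax, or 10 microM, descending half-log.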

[1] = second compound 0.1 µM, first compound 0.000316 µM
[2] = second compound 0.1 µM, first compound 0.001 µM
[3] = second compound 0.1 µM, first compound 0.00316 µM
[4] = second compound 0.1 µM, first compound 0.01 µM
[5] = second compound 0.1 µM, first compound 0.0316 µM
[6] = second compound 0.1 µM, first compound 0.1 µM
[7] = second compound 0.316 µM, first compound 0.000316 µM
[8] = second compound 0.316 µM, first compound 0.001 µM
[9] = second compound 0.316 µM, first compound 0.00316 µM
[10] = second compound 0.316 µM, first compound 0.01 µM
[11] = second compound 0.316 µM, first compound 0.0316 µM
[12] = second compound 0.316 µM, first compound 0.1 µM
[13] = second compound 1 µM, first compound 0.000316 µM
[14] = second compound 1 µM, first compound 0.001 µM
[15] = second compound 1 µM, first compound 0.00316 µM
[16] = second compound 1 µM, first compound 0.01 µM
[17] = second compound 1 µM, first compound 0.0316 µM
[18] = second compound 1 µM, first compound 0.1 µM
[19] = second compound 3.16 µM, first compound 0.000316 µM
[20] = second compound 3.16 µM, first compound 0.001 µM
[21] = second compound 3.16 µM, first compound 0.00316 µM
[22] = second compound 3.16 µM, first compound 0.01 µM
[23] = second compound 3.16 µM, first compound 0.0316 µM
[24] = second compound 3.16 µM, first compound 0.1 µM
[25] = second compound 10 µM, first compound 0.000316 µM
[26] = second compound 10 µM, first compound 0.001 µM
[27] = second compound 10 µM, first compound 0.00316 µM
[28] = second compound 10 µM, first compound 0.01 µM
[29] = second compound 10 µM, first compound 0.0316 µM
[30] = second compound 10 µM, first compound 0.1 µM
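Further: drug exposure lasted seven days after spheroids formed for three days.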
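Wherever viability, T/C is given: 100% = DMSO vehicle control viability.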

CC(C)n1nc(-c2ccc3oc(N)nc3c2)c2c(N)ncnc21 + CNCc1ccccc1-c1csc(C(C)Nc2nc(C)nc3cc(OC)c(OC)cc23)c1
7.23: pIC50 (second compound 0.1 µM)
inactive: viability, T/C [1] 72.7% | viability, T/C [2] 76.2% | viability, T/C [3] 65.5% | viability, T/C [4] 58.6% | viability, T/C [5] 53.8% | viability, T/C [6] 47.3% | viability, T/C [7] 70.3% | viability, T/C [8] 65.5% | viability, T/C [9] 59% | viability, T/C [10] 49% | viability, T/C [11] 42.6% | viability, T/C [12] 37.4% | viability, T/C [13] 70.8% | viability, T/C [14] 73.6% | viability, T/C [15] 52.5% | viability, T/C [16] 44.5% | viability, T/C [17] 32.1% | viability, T/C [18] 23.2%
active: viability, T/C [19] 0.52% | viability, T/C [20] 1.53% | viability, T/C [21] 2.23% | viability, T/C [22] 0.27% | viability, T/C [23] 10.3% | viability, T/C [24] 6% | viability, T/C [25] 1.29% | viability, T/C [26] 0.51% | viability, T/C [27] 0.14% | viability, T/C [28] 1.07% | viability, T/C [29] 10.9% | viability, T/C [30] 0.33%
8.24: pIC50 (second compound 1 µM)
7.97: pIC50 (second compound 0.316 µM)
> 9.50: pIC50 (second compound 3.16 µM) | pIC50 (second compound 10 µM)

COC(=O)c1ccc2c(C(=Nc3ccc(N(C)C(=O)CN4CCN(C)CC4)cc3)c3ccccc3)c(O)[nH]c2c1 + C=CC(=O)N1CCN(c2nc(OCC3CCCN3C)nc3c2CCN(c2cccc4cccc(C)c24)C3)CC1CC#N
active: viability, T/C (second compound 3.16 µM, first compound 1 µM) 0.34% | viability, T/C (second compound 3.16 µM, first compound 3.16 µM) 0.12% | viability, T/C (second compound 3.16 µM, first compound 10 µM) 0.93%
> 7.50: pIC50 (second compound 0.0316 µM) | pIC50 (second compound 0.1 µM) | pIC50 (second compound 0.316 µM) | pIC50 (second compound 1 µM) | pIC50 (second compound 3.16 µM)
inactive: viability, T/C (second compound 0.0316 µM, first compound 0.0316 µM) 23.7% | viability, T/C (second compound 0.0316 µM, first compound 0.1 µM) 23.2% | viability, T/C (second compound 0.0316 µM, first compound 0.316 µM) 21.9% | viability, T/C (second compound 0.0316 µM, first compound 1 µM) 30.4% | viability, T/C (second compound 0.0316 µM, first compound 3.16 µM) 26.8% | viability, T/C (second compound 0.0316 µM, first compound 10 µM) 31.9% | viability, T/C [5] 21.6% | viability, T/C [6] 20.4% | viability, T/C (second compound 0.1 µM, first compound 0.316 µM) 23.4% | viability, T/C (second compound 0.1 µM, first compound 1 µM) 27.4% | viability, T/C (second compound 0.1 µM, first compound 3.16 µM) 26.1% | viability, T/C (second compound 0.1 µM, first compound 10 µM) 27% | viability, T/C [11] 23.2% | viability, T/C [12] 21.1% | viability, T/C (second compound 0.316 µM, first compound 0.316 µM) 22.7% | viability, T/C (second compound 0.316 µM, first compound 1 µM) 27.8% | viability, T/C (second compound 0.316 µM, first compound 3.16 µM) 27.7% | viability, T/C (second compound 0.316 µM, first compound 10 µM) 28.3% | viability, T/C [17] 26.6% | viability, T/C [18] 26.3% | viability, T/C (second compound 1 µM, first compound 0.316 µM) 27.6% | viability, T/C (second compound 1 µM, first compound 1 µM) 28.8% | viability, T/C (second compound 1 µM, first compound 3.16 µM) 23.9% | viability, T/C (second compound 1 µM, first compound 10 µM) 23.4% | viability, T/C [23] 17.9% | viability, T/C [24] 29.2% | viability, T/C (second compound 3.16 µM, first compound 0.316 µM) 13.2%

CC(C)n1nc(-c2ccc3oc(N)nc3c2)c2c(N)ncnc21 + COc1cc2nc(C)nc(NC(C)c3cc(N)cc(C(F)(F)F)c3)c2cc1OC1CCOC1
9.00: pIC50 (second compound 3.16 µM)
> 9.50: pIC50 (second compound 10 µM)
7.80: pIC50 (second compound 0.316 µM)
active: viability, T/C [30] 9.84%
inactive: viability, T/C [1] 76.4% | viability, T/C [2] 73.5% | viability, T/C [3] 60.4% | viability, T/C [4] 60.6% | viability, T/C [5] 51.8% | viability, T/C [6] 47.5% | viability, T/C [7] 65.2% | viability, T/C [8] 73.6% | viability, T/C [9] 57.7% | viability, T/C [10] 47.5% | viability, T/C [11] 49.8% | viability, T/C [12] 34.7% | viability, T/C [13] 70.1% | viability, T/C [14] 59.1% | viability, T/C [15] 45.8% | viability, T/C [16] 45.2% | viability, T/C [17] 28.4% | viability, T/C [18] 23.5% | viability, T/C [19] 59.9% | viability, T/C [20] 49.9% | viability, T/C [21] 38.4% | viability, T/C [22] 32% | viability, T/C [23] 20.5% | viability, T/C [24] 10.2% | viability, T/C [25] 37.7% | viability, T/C [26] 35.2% | viability, T/C [27] 24.8% | viability, T/C [28] 16.2% | viability, T/C [29] 11.5%
8.53: pIC50 (second compound 1 µM)
7.25: pIC50 (second compound 0.1 µM)
